Read-outs that look alike come from different tables or passages of the source.

Here are results for six compounds from PMC4858680, “A platinum-based hybrid drug design approach to circumvent acquired resistance to molecular targeted tyrosine kinase inhibitors” (Scientific Reports, 2016).

One assay relates to H1975. Description: Anticancer activity (cytotoxicity) in NSCLC cell line. Type of assay: cell-based. Particulars: Homo sapiens, NCI-H1975, read-out: Anticancer activity (IC50) H1975.
For the next assay, the target named is T1, TYRO3 (Homo sapiens, UniProt Q06418).
T1 construct: purchased DiscoveRx Corporation (KINOMEscan service)
T1 sequence (Q06418 41-890): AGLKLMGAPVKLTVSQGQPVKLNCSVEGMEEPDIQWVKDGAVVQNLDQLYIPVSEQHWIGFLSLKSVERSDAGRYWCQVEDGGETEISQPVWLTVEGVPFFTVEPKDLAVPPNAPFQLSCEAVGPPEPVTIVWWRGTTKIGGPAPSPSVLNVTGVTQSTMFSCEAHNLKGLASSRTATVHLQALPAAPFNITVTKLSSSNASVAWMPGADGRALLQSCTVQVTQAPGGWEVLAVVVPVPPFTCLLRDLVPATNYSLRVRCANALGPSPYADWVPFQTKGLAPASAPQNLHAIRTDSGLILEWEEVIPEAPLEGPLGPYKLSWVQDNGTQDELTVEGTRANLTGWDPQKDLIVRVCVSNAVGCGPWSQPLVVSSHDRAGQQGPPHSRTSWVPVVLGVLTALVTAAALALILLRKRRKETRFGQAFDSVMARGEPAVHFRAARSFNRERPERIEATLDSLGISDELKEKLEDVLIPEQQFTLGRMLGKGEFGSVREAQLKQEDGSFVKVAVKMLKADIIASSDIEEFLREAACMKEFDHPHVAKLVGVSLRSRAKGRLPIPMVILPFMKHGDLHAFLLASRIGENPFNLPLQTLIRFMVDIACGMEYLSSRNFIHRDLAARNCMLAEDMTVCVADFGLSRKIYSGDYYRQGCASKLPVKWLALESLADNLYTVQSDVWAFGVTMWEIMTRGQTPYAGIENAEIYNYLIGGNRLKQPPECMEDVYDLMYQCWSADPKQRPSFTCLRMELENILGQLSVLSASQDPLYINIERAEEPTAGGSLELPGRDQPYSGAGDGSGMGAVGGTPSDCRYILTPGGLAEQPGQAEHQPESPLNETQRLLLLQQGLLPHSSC
Type of assay: binding. Particulars: for Percent control: 10 μM.

The target in another assay is T2, EPHA4 (Homo sapiens, UniProt P54764).
T2 construct: purchased DiscoveRx KINOMEscan
T2 sequence (P54764 20-986): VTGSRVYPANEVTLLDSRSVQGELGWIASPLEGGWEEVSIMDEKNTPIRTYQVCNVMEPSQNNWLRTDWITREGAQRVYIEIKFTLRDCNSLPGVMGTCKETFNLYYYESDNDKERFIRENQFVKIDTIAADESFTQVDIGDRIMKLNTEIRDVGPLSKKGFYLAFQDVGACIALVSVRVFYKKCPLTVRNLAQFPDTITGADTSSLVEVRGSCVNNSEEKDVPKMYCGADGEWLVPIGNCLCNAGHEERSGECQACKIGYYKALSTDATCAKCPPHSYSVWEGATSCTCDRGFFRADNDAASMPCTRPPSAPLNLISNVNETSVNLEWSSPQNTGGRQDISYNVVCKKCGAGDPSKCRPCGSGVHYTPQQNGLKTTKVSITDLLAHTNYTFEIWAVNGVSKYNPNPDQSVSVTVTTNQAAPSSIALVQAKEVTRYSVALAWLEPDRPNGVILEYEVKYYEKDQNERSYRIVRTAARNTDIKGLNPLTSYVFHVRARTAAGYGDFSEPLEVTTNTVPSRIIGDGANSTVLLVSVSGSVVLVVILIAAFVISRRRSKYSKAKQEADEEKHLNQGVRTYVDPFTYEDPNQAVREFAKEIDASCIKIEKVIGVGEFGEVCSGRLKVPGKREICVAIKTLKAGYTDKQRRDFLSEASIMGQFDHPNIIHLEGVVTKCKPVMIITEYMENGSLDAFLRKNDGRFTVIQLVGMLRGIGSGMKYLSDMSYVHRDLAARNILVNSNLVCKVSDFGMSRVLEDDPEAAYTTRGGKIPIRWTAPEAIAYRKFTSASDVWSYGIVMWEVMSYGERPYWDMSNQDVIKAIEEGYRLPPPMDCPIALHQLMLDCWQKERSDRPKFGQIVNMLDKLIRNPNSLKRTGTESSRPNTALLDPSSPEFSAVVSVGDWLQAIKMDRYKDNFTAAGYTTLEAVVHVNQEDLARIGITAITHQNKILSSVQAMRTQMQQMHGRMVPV
Type of assay: binding. The conditions noted are these: 10 μM.

Another assay concerns the target T3, DDR2 (Homo sapiens, UniProt Q16832).
T3 sequence (Q16832 22-855): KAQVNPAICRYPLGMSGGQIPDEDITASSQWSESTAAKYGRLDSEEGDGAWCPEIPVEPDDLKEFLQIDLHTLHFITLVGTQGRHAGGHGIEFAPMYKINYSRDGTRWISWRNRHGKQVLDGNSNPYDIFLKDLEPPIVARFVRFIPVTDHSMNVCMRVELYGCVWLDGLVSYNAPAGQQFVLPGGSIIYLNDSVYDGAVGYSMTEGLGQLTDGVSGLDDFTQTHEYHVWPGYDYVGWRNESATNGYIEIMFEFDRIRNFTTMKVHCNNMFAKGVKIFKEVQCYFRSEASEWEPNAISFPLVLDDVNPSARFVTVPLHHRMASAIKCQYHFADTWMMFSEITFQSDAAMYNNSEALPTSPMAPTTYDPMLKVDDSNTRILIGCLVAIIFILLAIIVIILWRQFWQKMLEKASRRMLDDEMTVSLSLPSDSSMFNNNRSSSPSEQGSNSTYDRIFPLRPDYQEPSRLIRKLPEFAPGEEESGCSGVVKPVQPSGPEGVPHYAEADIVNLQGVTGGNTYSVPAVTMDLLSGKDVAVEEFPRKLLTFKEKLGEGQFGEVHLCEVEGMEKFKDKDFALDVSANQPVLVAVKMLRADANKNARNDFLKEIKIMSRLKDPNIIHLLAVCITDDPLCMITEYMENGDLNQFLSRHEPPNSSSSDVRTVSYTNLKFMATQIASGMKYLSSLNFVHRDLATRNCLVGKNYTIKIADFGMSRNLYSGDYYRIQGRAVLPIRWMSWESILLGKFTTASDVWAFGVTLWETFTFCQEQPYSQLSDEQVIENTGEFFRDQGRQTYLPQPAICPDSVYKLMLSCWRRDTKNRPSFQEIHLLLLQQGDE
The conditions noted are these: 10 μM.

For a further assay, the target named is T4, FLT3(K663D) (Homo sapiens, UniProt P36888, K663Q).
T4 sequence (P36888 564-993 K663Q limits assumed): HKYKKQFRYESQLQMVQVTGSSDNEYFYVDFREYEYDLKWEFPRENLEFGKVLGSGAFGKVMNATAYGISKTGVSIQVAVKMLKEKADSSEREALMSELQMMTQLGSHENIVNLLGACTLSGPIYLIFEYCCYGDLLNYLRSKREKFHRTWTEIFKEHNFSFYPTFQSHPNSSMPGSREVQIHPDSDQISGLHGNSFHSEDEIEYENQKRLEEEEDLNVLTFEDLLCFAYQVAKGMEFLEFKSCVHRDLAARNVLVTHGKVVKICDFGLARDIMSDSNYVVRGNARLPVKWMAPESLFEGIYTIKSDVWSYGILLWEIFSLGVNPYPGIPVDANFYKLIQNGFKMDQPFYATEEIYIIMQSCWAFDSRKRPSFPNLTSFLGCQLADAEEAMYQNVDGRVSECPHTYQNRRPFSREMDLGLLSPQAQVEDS

The target of the next assay is KIT(A829P) (Homo sapiens, UniProt P10721, A829P). Particulars: 10 μM.
Chain of KIT(A829P) (P10721 26-976 A829P): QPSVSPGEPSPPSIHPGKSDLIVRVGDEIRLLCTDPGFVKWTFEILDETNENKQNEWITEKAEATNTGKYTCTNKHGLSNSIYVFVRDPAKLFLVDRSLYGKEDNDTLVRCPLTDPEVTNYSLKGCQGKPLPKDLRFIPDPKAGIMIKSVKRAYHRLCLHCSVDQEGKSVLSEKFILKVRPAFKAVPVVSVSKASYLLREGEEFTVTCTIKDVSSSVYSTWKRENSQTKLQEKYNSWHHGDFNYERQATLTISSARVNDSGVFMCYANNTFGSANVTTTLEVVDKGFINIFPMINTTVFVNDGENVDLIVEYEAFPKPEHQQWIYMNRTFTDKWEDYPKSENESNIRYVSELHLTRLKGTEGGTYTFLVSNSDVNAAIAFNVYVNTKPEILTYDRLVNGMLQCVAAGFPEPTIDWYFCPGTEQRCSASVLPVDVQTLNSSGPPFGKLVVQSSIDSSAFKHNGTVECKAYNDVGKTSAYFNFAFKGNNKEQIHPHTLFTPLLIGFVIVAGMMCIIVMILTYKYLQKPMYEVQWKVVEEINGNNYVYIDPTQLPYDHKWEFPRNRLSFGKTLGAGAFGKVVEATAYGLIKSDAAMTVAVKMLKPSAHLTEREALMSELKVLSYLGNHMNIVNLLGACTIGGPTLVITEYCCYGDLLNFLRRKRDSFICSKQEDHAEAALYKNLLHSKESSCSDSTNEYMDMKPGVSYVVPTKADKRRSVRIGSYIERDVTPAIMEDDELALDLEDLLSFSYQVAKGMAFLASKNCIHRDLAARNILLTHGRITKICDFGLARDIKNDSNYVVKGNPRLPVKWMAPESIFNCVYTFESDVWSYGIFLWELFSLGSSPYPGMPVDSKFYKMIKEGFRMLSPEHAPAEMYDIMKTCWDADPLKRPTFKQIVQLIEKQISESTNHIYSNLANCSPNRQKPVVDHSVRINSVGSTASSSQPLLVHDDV
The next assay has as its target KIT (Homo sapiens, UniProt P10721). Description: biochemical. The conditions noted are these: read-out: Percent control.
The target of a further assay is KIT(V559D) (Homo sapiens, UniProt P10721, V559D). Description: biochemical. The conditions noted are these: read-out: Percent control.
Chain of KIT(V559D) (P10721 26-976 V559D): as the sequence (P10721 26-976 A829P) above, with V534D, P804A counted along it
The target of another assay is MET(Y1235D) (Homo sapiens, UniProt P08581, Y1235D). Description: biochemical. Particulars: read-out: Percent control.
Chain of MET(Y1235D) (P08581 25-1390 Y1235D): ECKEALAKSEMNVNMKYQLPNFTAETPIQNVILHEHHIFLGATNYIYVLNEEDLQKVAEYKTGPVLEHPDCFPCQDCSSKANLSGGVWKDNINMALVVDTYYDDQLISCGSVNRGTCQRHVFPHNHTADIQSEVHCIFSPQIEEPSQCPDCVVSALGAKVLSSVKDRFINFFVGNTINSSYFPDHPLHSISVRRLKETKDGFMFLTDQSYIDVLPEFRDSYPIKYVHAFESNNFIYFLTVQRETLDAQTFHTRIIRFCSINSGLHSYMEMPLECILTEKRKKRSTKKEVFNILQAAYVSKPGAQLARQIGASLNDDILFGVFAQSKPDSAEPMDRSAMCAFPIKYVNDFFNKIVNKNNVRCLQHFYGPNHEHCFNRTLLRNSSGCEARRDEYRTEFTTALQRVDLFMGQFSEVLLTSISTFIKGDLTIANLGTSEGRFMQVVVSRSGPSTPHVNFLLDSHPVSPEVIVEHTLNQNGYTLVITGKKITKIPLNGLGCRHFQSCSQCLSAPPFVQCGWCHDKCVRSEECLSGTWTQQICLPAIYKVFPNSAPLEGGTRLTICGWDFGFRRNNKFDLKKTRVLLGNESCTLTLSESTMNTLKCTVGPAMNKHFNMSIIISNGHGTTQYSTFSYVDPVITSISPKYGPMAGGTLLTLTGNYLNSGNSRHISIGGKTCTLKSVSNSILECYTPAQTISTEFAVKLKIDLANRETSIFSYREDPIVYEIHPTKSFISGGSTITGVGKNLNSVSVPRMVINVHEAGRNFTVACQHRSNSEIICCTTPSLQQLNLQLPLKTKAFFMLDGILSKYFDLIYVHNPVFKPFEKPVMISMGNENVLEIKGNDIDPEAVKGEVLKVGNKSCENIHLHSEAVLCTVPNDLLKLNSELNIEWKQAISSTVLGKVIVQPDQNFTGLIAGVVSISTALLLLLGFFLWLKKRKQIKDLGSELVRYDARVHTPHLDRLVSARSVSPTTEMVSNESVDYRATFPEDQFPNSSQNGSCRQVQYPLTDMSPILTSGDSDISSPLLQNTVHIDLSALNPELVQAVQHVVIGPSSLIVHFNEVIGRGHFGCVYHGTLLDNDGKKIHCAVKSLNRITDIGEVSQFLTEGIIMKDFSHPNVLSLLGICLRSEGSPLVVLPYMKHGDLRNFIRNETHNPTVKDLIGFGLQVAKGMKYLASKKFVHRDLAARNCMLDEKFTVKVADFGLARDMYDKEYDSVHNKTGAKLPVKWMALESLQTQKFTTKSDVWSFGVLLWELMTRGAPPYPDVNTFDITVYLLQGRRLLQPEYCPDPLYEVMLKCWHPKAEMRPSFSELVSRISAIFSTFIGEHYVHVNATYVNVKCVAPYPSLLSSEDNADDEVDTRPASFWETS
In the next assay the target is ABL2 (Homo sapiens, UniProt P42684). Particulars: 10 μM.
Chain of ABL2 (P42684 whole entry): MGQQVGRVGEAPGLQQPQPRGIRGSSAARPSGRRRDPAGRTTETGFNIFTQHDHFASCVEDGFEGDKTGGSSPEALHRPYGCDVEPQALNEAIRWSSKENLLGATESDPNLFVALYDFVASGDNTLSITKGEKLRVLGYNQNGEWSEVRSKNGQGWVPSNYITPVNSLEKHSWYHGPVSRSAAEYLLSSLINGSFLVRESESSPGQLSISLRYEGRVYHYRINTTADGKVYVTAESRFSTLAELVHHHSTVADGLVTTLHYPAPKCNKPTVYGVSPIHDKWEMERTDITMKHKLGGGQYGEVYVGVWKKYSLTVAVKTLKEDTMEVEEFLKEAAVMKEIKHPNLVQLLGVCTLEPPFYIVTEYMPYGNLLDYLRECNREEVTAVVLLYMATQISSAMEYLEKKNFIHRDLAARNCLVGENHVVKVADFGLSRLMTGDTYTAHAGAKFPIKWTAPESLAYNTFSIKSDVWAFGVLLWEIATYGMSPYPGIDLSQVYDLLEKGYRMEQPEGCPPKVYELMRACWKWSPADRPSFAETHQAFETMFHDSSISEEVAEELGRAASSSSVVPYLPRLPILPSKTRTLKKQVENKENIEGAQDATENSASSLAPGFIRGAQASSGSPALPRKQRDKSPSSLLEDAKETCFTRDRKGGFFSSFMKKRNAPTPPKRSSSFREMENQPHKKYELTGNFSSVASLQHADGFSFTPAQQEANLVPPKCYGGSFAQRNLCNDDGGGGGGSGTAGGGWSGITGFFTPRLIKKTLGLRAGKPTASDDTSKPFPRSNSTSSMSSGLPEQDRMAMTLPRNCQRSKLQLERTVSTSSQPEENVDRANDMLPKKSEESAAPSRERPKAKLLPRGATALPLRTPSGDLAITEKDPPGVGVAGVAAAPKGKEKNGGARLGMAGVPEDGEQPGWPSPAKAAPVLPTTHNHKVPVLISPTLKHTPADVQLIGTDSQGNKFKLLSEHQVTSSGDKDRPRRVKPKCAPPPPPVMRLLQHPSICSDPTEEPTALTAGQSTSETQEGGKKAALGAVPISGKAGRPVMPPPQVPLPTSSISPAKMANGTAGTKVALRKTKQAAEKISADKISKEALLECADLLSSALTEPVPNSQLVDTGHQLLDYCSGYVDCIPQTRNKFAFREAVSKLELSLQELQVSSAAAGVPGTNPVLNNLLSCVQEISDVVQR

Chain of KIT (P10721 26-976): as the sequence (P10721 26-976 A829P) above, with P804A counted along it

In the case of `COc1cc2c(Nc3ccc(Br)cc3F)ncnc2cc1OCC1CCN(C)CC1` [Vandetanib, reference compound], the IC50 (usually the concentration that gives 50% inhibition) in the assay with H1975 was determined as 13.8 ± 2.06 µM. For the same compound, the remaining binding at 10 µM on TYRO3 (read-out: Percent control) was determined as 0.9%.

For `Cc1ccc(NC(=O)c2ccc(CN3CCN(C)CC3)cc2)cc1Nc1nccc(-c2cccnc2)[n+]1[Pt-2]1([Cl])[NH2+]C2CCCCC2[NH2+]1` (centres unmarked) [1b, oxaliplatin-imatinib], the Percent control on EPHA4 stood at 88%; on TYRO3, 80%; at DDR2, 10%; at FLT3(K663D) (FLT3(K663D), 10 μM) it was 84%; at KIT(A829P) it was 5%.

With `C#Cc1cccc(Nc2ncnc3cc(OCCOC)c(OCCOC)cc23)c1` [Erlotinib], in the assay on H1975, the IC50 amounted to 11.8 ± 3.19 µM. For the same compound, the results for the remaining activity at 10 µM at KIT, at KIT(V559D) and at MET(Y1235D) were 14.5%, 23.7% and 9.9%, respectively.

For `COc1cc2c(Nc3ccc(Br)cc3F)[n+]([Pt-2]3([Cl])[NH2+]C4CCCCC4[NH2+]3)cnc2cc1OCC1CCN(C)CC1` (centres unmarked) [3b, oxaliplatin-vandetanib], the Percent control at TYRO3 stood at 0%; on ABL2, 20%; on DDR2 it was 0.21%; on FLT3(K663D), 43; on KIT(A829P), 2.7%.

Turning to `C#Cc1cccc(Nc2c3cc(OCCOC)c(OCCOC)cc3nc[n+]2[Pt@SP2-2]([NH3+])([NH3+])[Cl])c1` [2a, cisplatin-erlotinib], the Percent control on EPHA4 was determined as 79%; at TYRO3 it was 85%; on ABL2, 46%; at DDR2 it was 100%; on FLT3(K663D), 67; at KIT(A829P), 56%.

As for `Cc1ccc(NC(=O)c2ccc(CN3CCN(C)CC3)cc2)cc1Nc1nccc(-c2cccnc2)n1` [Imatinib, reference compound], the Percent control at EPHA4 is 100%; at TYRO3, 100%; on DDR2, 0.1%; on FLT3(K663D) (FLT3(K663D), 10 μM), 100%. Also, the remaining activity at 10 µM on KIT came out at 0.1%; at KIT(V559D), 0.1%; at MET(Y1235D) it was 100%.
